Measured values: patent US20100210536A1, “USE OF LEPTIN (22-56 ) AS A THERAPEUTIC AGENT” (priority 2007, published 2010)
Where no end group is shown, it is not given here.

Test system: drug-resistant Mycobacterium tuberculosis
Conditions: peptide 10 micrograms per ml, seven days

VPIQKVQDDTKTLIKTIVTRINDISHTQSVSSKQK-OH [Leptin (22-56)]
% inhibition: 0.0%
